Twelve compounds from PMC3395614, “Functional Evolution of Mammalian Odorant Receptors” (PLoS Genetics, 2012) can be followed below.

In general, EC50 refers to the concentration that produces a half-maximal response. Low readings indicate an effect from little substance, high ones a need for much substance.

The target in one assay is T1, chimp OR5K1 (Pan troglodytes, UniProt A0A2J8MY22).
T1 construct: gene LOC470870; full-length ORF from genomic DNA, N-terminal Rho-tag, Hana3A cells with human RTP1S
Kind of assay: cAMP-mediated CRE-luciferase reporter dose-response, Hana3A cells. The conditions noted are these: agonist; human RTP1S and M3 receptor co-expressed; odor 10 nM to 10 mM. It counts as cell-based.

The next assay addresses T2, h51E1 (Homo sapiens, UniProt Q8TCB6).
T2 construct: gene OR51E1
The assay is described as follows: cell-based. The arrangement: species or system Hana3A; cAMP-mediated luciferase reporter dose-response of odorant receptor orthologs and paralogs. An excerpt: (§1) Figure 6 Dose-response curves of OR orthologs and paralogs to a given ligand. (A) OR5K1 orthologs and 5 K subfamily to eugenol methyl ether. (B) OR8D1 orthologs and 8D subfamily members to 4,5-dimethyl-3-hydroxy-2,5-dihydrofuran-2-one. […] X-axis is the concentration of a given odor in Log Molar. Y-axis is normalized response (n = 3, ± S.E.M.). Human (h), chimpanzee (c) and rhesus macaque (m), mouse receptors (m+number); para indicates a receptor that is a paralog to the human reference OR. Vector control is Rho-pCI. See Figure S11 for additional dose-response data from orthologs and subfamily members. Supplementary file pgen.1002821.s018.pdf: Table S5 Comparison of dose-response curves from orthologs and paralogs. LogEC50 (M), Span (dynamic-range) for each OR is given. […] F-ratio and p-values from extra sum-of-squares test. (PDF) Click here for additional data file.  Figure 2 Response of OR orthologs to 42 chemically diverse odors. (A) Tuning curves of human, chimp and macaque OR2W1 orthologs tested against 42 odors using a cAMP-mediated luciferase assay. Odorants are ordered along the x-axis according to the response elicited from the human OR2W1, with the best ligands closer to the center. Y-axis represents the luciferase response to an odor at 100 µM (n = 3, ± S.E.). Negative values on the y-axis indicate the odor elicited an inhibitory response on OR signaling. See Figure S6 for additional tuning curves. (B) Response of chimp and macaque OR2W1 orthologs (variant responses) plotted against the human OR2W1 response using the data from (A). X-axis and y-axis are response in luciferase assay at 100 µM (n = 3, ± S.E.). The black line represents the unit-slope line. Odor abbreviations in Table S3.

For a further assay, the target named is T3, h10G3 (Homo sapiens, UniProt Q8NGC4).
T3 construct: gene OR10G3
The assay is described as follows: cell-based. Also noted: species or system Hana3A; cAMP-mediated luciferase reporter dose-response of odorant receptor orthologs and paralogs.
From the text: as §1

Another assay concerns the target T4, h10G4 (Homo sapiens, UniProt Q8NGN3).
T4 construct: gene OR10G4
Kind of assay: cell-based. The arrangement: species or system Hana3A; cAMP-mediated luciferase reporter dose-response of odorant receptor orthologs and paralogs.
From the text: as §1

A further assay has as its target T5, h10G9 (Homo sapiens, UniProt Q8NGN4).
T5 construct: gene OR10G9
Kind of assay: cell-based. The arrangement: species or system Hana3A; cAMP-mediated luciferase reporter dose-response of odorant receptor orthologs and paralogs.
From the text: as §1

The target in the next assay is T6, h10J1 (Homo sapiens, UniProt P30954).
T6 construct: gene OR10J1
Kind of assay: cell-based. The arrangement: species or system Hana3A; cAMP-mediated luciferase reporter dose-response of odorant receptor orthologs and paralogs.
From the text: as §1

Another assay deals with T7, h10J5 (Homo sapiens, UniProt Q8NHC4).
T7 construct: gene OR10J5
The assay is described as follows: cell-based. Also noted: species or system Hana3A; cAMP-mediated luciferase reporter dose-response of odorant receptor orthologs and paralogs.
From the text: as §1

The target in a further assay is T8, MOR267-13 (Mus musculus, UniProt Q62007).
T8 construct: gene Or10j5
Kind of assay: cell-based. Also noted: species or system Hana3A; cAMP-mediated luciferase reporter assay of odorant receptor activation, dose-response, orthologs and paralogs. Particulars: ortholog and paralog set. The procedure:
Figure 2 Response of OR orthologs to 42 chemically diverse odors. (A) Tuning curves of human, chimp and macaque OR2W1 orthologs tested against 42 odors using a cAMP-mediated luciferase assay. Odorants are ordered along the x-axis according to the response elicited from the human OR2W1, with the best ligands closer to the center. Y-axis represents the luciferase response to an odor at 100 µM (n = 3, ± S.E.). Negative values on the y-axis indicate the odor elicited an inhibitory response on OR signaling. See Figure S6 for additional tuning curves. (B) Response of chimp and macaque OR2W1 orthologs (variant responses) plotted against the human OR2W1 response using the data from (A). X-axis and y-axis are response in luciferase assay at 100 µM (n = 3, ± S.E.). The black line represents the unit-slope line. Odor abbreviations in Table S3. Figure 6 Dose-response curves of OR orthologs and paralogs to a given ligand. (A) OR5K1 orthologs and 5 K subfamily to eugenol methyl ether. (B) OR8D1 orthologs and 8D subfamily members to 4,5-dimethyl-3-hydroxy-2,5-dihydrofuran-2-one. […] X-axis is the concentration of a given odor in Log Molar. Y-axis is normalized response (n = 3, ± S.E.M.). Human (h), chimpanzee (c) and rhesus macaque (m), mouse receptors (m+number); para indicates a receptor that is a paralog to the human reference OR. Vector control is Rho-pCI. […]

For assay [1], the target named is T9, chimp OR8K3 (Pan troglodytes, UniProt A0A2J8LC19).
T9 construct: gene LOC466557; full-length ORF from genomic DNA, N-terminal Rho-tag, Hana3A cells with human RTP1S
Kind of assay: cAMP-mediated CRE-luciferase reporter dose-response, Hana3A cells. The format is cell-based. Particulars: agonist; human RTP1S and M3 receptor co-expressed; odor 10 nM to 10 mM.

Assay [2] addresses T9, chimp OR8K3. Kind of assay: cell-based. Also noted: species or system Hana3A; cAMP-mediated luciferase reporter dose-response of odorant receptor orthologs and paralogs.
From the text: as §1

The next assay deals with T10, h56A5 (Homo sapiens, UniProt P0C7T3).
T10 construct: gene OR56A5
Kind of assay: cell-based. Also noted: species or system Hana3A; cAMP-mediated luciferase reporter dose-response of odorant receptor orthologs and paralogs.
From the text: as §1

A further assay addresses T11, h56A4 (Homo sapiens, UniProt Q8NGH8).
T11 construct: gene OR56A4
Kind of assay: cell-based. The arrangement: species or system Hana3A; cAMP-mediated luciferase reporter dose-response of odorant receptor orthologs and paralogs.
From the text: as §1

Another assay concerns the target T12, h56A1 (Homo sapiens, UniProt Q8NGH5).
T12 construct: gene OR56A1
Kind of assay: cell-based. The arrangement: species or system Hana3A; cAMP-mediated luciferase reporter dose-response of odorant receptor orthologs and paralogs.
From the text: as §1

The target in a further assay is T13, h2J1 (Homo sapiens, UniProt Q9GZK6).
T13 construct: gene OR2J1
The assay is described as follows: cell-based. The arrangement: species or system Hana3A; cAMP-mediated luciferase reporter dose-response of odorant receptor orthologs and paralogs.
From the text: as §1

For assay [3], the target named is T14, OR2J2 (human) (Homo sapiens, UniProt O76002).
T14 construct: full-length ORF from genomic DNA, N-terminal Rho-tag, Hana3A cells with human RTP1S
T14 sequence (O76002 1-312): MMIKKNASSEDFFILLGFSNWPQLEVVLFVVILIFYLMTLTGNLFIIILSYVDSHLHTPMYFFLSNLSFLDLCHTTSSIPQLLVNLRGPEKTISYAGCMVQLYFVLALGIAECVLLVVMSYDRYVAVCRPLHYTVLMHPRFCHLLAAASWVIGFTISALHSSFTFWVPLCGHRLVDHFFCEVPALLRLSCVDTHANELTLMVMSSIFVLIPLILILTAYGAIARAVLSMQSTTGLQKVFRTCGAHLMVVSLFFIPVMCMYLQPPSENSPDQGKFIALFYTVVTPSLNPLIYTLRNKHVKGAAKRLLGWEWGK
The assay is described as follows: cell-based. Also noted: species or system Hana3A; cAMP-mediated luciferase reporter dose-response of odorant receptor orthologs and paralogs.
From the text: as §1

The target of a further assay is T15, h2J3 (Homo sapiens, UniProt O76001).
T15 construct: gene OR2J3
The assay is described as follows: cell-based. Also noted: species or system Hana3A; cAMP-mediated luciferase reporter dose-response of odorant receptor orthologs and paralogs.
From the text: as §1

The target of a further assay is T16, h2A25 (Homo sapiens, UniProt A4D2G3).
T16 construct: gene OR2A25
The assay is described as follows: cell-based. The arrangement: species or system Hana3A; cAMP-mediated luciferase reporter dose-response of odorant receptor orthologs and paralogs.
From the text: as §1

Assay [4] addresses T17, chimp OR8D1 (Pan troglodytes, UniProt A0A2J8N1S1).
T17 construct: gene LOC466828; full-length ORF from genomic DNA, N-terminal Rho-tag, Hana3A cells with human RTP1S
The assay is described as follows: cell-based. Also noted: species or system Hana3A; cAMP-mediated luciferase reporter dose-response of odorant receptor orthologs and paralogs.
From the text: as §1

For assay [5], the target named is T17, chimp OR8D1. Kind of assay: cAMP-mediated CRE-luciferase reporter dose-response, Hana3A cells. The format is cell-based. The conditions noted are these: agonist; human RTP1S and M3 receptor co-expressed; odor 10 nM to 10 mM.
The target in the next assay is T18, mouse MOR256-17 (Mus musculus, UniProt P23275).
T18 construct: gene Or2c1
Kind of assay: cell-based. The conditions noted are these: ortholog set. Also noted: species or system Hana3A; cAMP-mediated luciferase reporter assay of odorant receptor activation, dose-response, ortholog pairs. The procedure:
(§2) Figure 2 Response of OR orthologs to 42 chemically diverse odors. (A) Tuning curves of human, chimp and macaque OR2W1 orthologs tested against 42 odors using a cAMP-mediated luciferase assay. Odorants are ordered along the x-axis according to the response elicited from the human OR2W1, with the best ligands closer to the center. Y-axis represents the luciferase response to an odor at 100 µM (n = 3, ± S.E.). Negative values on the y-axis indicate the odor elicited an inhibitory response on OR signaling. See Figure S6 for additional tuning curves. (B) Response of chimp and macaque OR2W1 orthologs (variant responses) plotted against the human OR2W1 response using the data from (A). X-axis and y-axis are response in luciferase assay at 100 µM (n = 3, ± S.E.). The black line represents the unit-slope line. Odor abbreviations in Table S3. We next wanted to examine the functional changes in sensitivity of orthologs to individual ligands by testing each ortholog across a range of concentrations. We selected a single odor for a given OR to construct a representative dose-response curve, fit the data to a sigmoid curve, and then compared the response of the human allele against the primate orthologs and the mouse allele with the rat ortholog using an extra sum of squares test. […]

The next assay deals with T19, h2B11 (Homo sapiens, UniProt Q5JQS5).
T19 construct: gene OR2B11
The assay is described as follows: cell-based. The arrangement: species or system Hana3A; cAMP-mediated luciferase reporter dose-response of odorant receptor orthologs and paralogs.
From the text: as §1

Another assay addresses T20, h5P3 (Homo sapiens, UniProt Q8WZ94).
T20 construct: gene OR5P3
The assay is described as follows: cell-based. Also noted: species or system Hana3A; cAMP-mediated luciferase reporter dose-response of odorant receptor orthologs and paralogs.
From the text: as §1

The next assay addresses human OR51L1 (Homo sapiens, UniProt Q8NGJ5). The assay is described as follows: cell-based. Also noted: species or system Hana3A; cAMP-mediated luciferase reporter assay of odorant receptor activation, dose-response, ortholog pairs. The conditions noted are these: ortholog set. The procedure: as §2
In assay [6] the target is T14, OR2J2 (human). Kind of assay: cAMP-mediated CRE-luciferase reporter dose-response, Hana3A cells. Particulars: agonist; human RTP1S and M3 receptor co-expressed; odor 10 nM to 10 mM. It counts as cell-based. (Reporter assays use an easily measured gene product as a stand-in for the process of interest.)

T3 sequence (Q8NGC4 whole entry): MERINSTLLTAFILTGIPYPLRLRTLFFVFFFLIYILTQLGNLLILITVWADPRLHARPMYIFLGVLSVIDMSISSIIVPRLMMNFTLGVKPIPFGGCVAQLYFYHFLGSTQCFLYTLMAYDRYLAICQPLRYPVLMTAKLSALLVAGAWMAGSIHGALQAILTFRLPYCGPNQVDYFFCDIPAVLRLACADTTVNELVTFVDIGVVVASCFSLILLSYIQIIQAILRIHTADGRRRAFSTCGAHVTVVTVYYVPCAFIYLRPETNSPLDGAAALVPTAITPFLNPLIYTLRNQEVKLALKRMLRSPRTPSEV
T17 sequence (A0A2J8N1S1 1-308): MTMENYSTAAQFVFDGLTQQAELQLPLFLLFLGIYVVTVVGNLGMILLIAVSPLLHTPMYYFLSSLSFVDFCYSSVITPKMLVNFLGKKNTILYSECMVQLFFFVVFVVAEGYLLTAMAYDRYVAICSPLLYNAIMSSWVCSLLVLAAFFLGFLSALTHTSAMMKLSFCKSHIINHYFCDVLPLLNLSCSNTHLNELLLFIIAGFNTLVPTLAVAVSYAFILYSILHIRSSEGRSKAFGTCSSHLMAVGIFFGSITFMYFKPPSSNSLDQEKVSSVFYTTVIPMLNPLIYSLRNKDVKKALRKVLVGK
T15 sequence (O76001 whole entry): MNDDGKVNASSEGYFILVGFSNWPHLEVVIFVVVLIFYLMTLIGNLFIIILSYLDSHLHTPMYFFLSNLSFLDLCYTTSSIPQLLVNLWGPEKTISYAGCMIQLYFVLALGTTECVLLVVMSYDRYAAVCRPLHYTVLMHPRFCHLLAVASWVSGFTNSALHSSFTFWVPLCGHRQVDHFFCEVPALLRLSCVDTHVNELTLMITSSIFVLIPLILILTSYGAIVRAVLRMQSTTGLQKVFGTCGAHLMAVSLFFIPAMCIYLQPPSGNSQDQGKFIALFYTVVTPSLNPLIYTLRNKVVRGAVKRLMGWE
T13 sequence (Q9GZK6 whole entry): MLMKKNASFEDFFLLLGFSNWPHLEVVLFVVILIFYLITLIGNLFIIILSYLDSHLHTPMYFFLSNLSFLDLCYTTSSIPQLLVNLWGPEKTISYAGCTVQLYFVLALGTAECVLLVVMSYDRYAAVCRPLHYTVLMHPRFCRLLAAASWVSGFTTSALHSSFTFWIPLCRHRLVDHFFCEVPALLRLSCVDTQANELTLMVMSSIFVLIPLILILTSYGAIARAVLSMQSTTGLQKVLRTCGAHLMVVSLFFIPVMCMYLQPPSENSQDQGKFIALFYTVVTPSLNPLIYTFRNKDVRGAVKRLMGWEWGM
T9 sequence (A0A2J8LC19 1-312): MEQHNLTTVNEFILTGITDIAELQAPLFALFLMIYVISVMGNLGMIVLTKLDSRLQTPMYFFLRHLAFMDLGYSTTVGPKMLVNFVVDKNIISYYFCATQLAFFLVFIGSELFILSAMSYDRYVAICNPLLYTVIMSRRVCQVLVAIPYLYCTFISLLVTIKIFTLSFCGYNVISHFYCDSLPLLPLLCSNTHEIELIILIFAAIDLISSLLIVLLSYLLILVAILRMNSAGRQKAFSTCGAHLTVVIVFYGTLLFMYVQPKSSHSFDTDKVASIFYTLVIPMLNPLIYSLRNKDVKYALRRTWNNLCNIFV
T4 sequence (Q8NGN3 whole entry): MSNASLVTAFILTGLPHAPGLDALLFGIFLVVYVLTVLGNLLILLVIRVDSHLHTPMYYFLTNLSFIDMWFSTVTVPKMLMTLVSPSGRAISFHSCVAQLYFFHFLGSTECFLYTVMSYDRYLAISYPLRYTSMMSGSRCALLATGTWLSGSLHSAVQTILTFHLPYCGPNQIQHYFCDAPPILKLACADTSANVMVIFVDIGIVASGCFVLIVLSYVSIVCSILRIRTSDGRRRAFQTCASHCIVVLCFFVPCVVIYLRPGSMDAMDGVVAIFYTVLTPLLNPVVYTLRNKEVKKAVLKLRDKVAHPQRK
human OR51L1, sequence (Q8NGJ5 whole entry): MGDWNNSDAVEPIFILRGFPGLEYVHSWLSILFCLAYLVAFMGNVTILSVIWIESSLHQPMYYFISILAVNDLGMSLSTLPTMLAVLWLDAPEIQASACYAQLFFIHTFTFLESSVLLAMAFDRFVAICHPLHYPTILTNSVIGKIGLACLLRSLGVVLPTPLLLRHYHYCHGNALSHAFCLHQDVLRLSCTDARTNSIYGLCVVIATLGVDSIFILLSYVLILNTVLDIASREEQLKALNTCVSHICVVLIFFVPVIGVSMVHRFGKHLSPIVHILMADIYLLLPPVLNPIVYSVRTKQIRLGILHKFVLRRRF
T8 sequence (Q62007 whole entry): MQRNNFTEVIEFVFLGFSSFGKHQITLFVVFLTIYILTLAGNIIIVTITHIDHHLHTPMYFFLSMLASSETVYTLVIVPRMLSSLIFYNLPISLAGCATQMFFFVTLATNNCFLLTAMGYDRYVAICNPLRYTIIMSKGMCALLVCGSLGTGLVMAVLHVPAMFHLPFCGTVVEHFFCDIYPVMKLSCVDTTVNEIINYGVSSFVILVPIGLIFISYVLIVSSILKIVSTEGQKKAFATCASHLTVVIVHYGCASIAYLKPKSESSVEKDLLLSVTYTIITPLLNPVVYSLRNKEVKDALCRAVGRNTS
T5 sequence (Q8NGN4 whole entry): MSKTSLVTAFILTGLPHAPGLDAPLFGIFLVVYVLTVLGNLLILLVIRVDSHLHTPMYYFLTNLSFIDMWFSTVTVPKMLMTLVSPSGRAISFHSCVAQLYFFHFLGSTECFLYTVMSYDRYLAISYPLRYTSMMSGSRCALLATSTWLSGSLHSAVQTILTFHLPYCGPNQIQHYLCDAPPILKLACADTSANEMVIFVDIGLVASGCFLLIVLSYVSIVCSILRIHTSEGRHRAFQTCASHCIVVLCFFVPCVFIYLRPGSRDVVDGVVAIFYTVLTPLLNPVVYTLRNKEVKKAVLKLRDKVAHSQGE
T6 sequence (P30954 whole entry): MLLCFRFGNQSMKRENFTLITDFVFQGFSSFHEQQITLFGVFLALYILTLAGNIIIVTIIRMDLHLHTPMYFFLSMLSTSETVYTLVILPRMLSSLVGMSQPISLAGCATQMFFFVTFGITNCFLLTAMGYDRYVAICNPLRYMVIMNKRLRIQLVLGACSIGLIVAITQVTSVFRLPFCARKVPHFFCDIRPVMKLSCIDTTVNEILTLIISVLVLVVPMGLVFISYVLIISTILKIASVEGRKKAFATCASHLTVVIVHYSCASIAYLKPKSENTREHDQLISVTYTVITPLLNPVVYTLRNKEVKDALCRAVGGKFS
T10 sequence (P0C7T3 whole entry): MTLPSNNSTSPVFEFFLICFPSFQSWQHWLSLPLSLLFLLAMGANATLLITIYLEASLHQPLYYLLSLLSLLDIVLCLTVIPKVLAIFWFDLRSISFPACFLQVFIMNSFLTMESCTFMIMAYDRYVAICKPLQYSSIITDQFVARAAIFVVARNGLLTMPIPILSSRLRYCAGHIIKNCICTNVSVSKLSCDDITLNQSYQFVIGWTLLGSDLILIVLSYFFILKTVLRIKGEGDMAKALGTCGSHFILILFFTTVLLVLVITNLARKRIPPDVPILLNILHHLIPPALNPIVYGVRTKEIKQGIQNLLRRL
T16 sequence (A4D2G3 whole entry): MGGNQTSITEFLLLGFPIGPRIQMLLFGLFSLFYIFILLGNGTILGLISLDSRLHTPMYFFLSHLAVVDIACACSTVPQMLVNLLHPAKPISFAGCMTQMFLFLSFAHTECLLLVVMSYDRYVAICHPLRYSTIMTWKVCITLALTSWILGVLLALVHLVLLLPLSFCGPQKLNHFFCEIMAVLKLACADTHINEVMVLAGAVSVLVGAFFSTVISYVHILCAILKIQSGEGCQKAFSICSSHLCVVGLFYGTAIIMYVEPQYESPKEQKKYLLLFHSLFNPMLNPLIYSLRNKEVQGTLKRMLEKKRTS
T2 sequence (Q8TCB6 whole entry): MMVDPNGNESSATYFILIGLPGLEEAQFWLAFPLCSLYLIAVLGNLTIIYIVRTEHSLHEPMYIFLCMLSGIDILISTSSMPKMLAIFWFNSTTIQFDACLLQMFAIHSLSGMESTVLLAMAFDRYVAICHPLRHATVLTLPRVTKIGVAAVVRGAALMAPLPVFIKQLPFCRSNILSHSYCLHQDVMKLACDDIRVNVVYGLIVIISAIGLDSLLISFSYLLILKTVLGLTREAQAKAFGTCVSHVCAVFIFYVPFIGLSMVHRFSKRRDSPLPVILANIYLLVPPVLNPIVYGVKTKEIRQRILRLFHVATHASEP
T7 sequence (Q8NHC4 whole entry): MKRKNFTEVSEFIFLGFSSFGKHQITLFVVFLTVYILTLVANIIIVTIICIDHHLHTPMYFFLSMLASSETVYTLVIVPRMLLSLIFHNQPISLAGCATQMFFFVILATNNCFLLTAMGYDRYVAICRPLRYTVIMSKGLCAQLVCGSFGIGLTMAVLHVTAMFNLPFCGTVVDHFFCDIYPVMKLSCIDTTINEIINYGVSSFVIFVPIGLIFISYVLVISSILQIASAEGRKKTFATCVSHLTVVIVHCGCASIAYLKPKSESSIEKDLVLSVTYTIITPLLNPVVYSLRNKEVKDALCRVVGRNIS
T19 sequence (Q5JQS5 whole entry): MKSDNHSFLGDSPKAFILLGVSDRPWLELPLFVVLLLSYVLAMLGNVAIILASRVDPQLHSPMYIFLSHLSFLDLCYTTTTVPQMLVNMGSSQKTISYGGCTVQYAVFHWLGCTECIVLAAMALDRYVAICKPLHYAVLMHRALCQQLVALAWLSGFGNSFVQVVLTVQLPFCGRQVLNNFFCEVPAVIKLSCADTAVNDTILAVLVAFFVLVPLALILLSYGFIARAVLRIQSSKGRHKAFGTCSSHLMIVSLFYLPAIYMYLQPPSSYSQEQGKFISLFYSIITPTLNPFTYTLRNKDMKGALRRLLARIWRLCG

Turning to `C=CCc1ccc(OC)c(OC)c1` [eugenol methyl ether], the LogEC50 result on chimp OR5K1 is “human OR5K1 is hyperfunctional to both chimp and macaque OR5K1 orthologs”.

At h51E1, `CCCC(=O)O` [butyric acid] showed an EC50 of 57.5 µM.

In the case of `CCOc1cc(C=O)ccc1O` [ethyl vanillin], the concentration for a half-maximal effect (EC50) on h10G3 is 41.7 µM; at h10G4, 40.7 µM; on h10G9, 537 µM.

On to `CC(C)(O)CCCC1=CCC(C=O)CC1` (stereo not shown) [lyral], for which the EC50 on h10J1 is 724 µM; at h10J5, 47.9 µM; on MOR267-13, 20.9 µM.

Turning to `CC(C)[C@H]1CC[C@H](C)C[C@@H]1O` [(+)-menthol], on chimp OR8K3 [1], the LogEC50 entry is “human and chimp OR8K3 orthologs are indistinguishable in their response to (+)-menthol”. Moreover, at chimp OR8K3 [2], the response was half-maximal at 9.12 µM (EC50).

In the case of `CCCCCCCCCC=O` [decyl aldehyde], the EC50 on h56A5 was 162 µM; at h56A4 it was 191 µM; at h56A1, 575 µM.

Regarding `CC(=O)OC/C=C(\C)CCC=C(C)C` [geranyl acetate], the EC50 was 479 µM on h2J1, 42.7 µM on OR2J2 (human) [3], 162 µM at h2J3 and 9.55 µM on h2A25.

At h10G3, `C=CCc1ccc(O)c(OC)c1` [eugenol] showed an EC50 of 132 µM.

For the compound `CC1=C(O)C(=O)OC1C` (stereo not shown) [4,5-dimethyl-3-hydroxy-2,5-dihydrofuran-2-one], the midpoint of the response at chimp OR8D1 [4], the EC50, lay at 18.6 µM. Also, the LogEC50 result at chimp OR8D1 [5] is “Human OR8D1 is hyperfunctional to chimp and macaque OR8D1 orthologs”.

For the compound `O=c1ccc2ccccc2o1` [coumarin], the EC50 at mouse MOR256-17 was 44.7 µM; at h2B11, 72.4 µM; on h5P3, 2950 nM.

On to `C=CCOC(=O)Cc1ccccc1` [allyl phenyl acetate], for which, at human OR51L1, the EC50 is 9.12 µM.

As to `CCCCCCCCO` [1-octanol], the EC50 at h2J1 was 112 µM; on OR2J2 (human) [3], 7.41 µM; at h2J3, 1.86 µM. In addition, the LogEC50 result at OR2J2 (human) [6] was “OR2J2 orthologs and 2J subfamily members to 1-octanol”.
